This note sets out measurements from ChEMBL document CHEMBL1772976, “Bathymodiolamides A and B, ceramide derivatives from a deep-sea hydrothermal vent invertebrate mussel, Bathymodiolus thermophilus” (J Nat Prod, 2011).

One assay has as its system MCF7. Description: Cytotoxicity against human MCF7 cells after 48 hrs by MTT assay. In kind it is functional, cell-based. Particulars: MCF7, 48 h.
The subject of the next assay is HeLa. Briefly: Cytotoxicity against human HeLa cells after 48 hrs by MTT assay. Type of assay: functional, cell-based. (In general: Tetrazolium assays rely on reduction of a dye to a coloured formazan, in cell work by metabolically active cells.)

On to `CCC/C=C\C/C=C\CCC(=O)O[C@@H](COC(=O)CCCCCCCCCCCCC)[C@H](O)[C@H](CO)NC(=O)CCCCCCCCCCC` [BATHYMODIOLAMIDE B], for which the IC50 was determined as 200 nM in the assay with MCF7 and 500 nM with HeLa.
Consider `CCC/C=C\C/C=C\C/C=C\CCCCC(=O)O[C@@H](COC(=O)CCCCCCCCCCCCCCC)[C@H](O)[C@H](CO)NC(=O)CCCCCCCCCCC` [BATHYMODIOLAMIDE A], for which the IC50 in the assay on MCF7 worked out at 100 nM; in the assay with HeLa, 400 nM.

As a reminder, the IC50 is the concentration that inhibits the measured activity by half. A high value points to lower potency.
